Experimental data taken from PMC9050923, “6,N^2-Diaryl-1,3,5-triazine-2,4-diamines: synthesis, antiproliferative activity and 3D-QSAR modeling” (RSC Advances, 2020).
Read-outs that look alike come from different tables or passages of the source.

Key:
Type in all cases: cell-based
[1] = test system: SKBR-3; assay: MTT assay, SKBR-3 breast cancer cells; settings: for viability at 10 µM / GI50: Homo sapiens, SK-BR-3; for viability at 10 µM: read-out: Percentage of cell viability SKBR-3; for GI50: 72 h, mean of three independent experiments ± SEM
Protocol: (§1) The prepared compounds 1–126 were tested on three breast cancer cell lines namely, MDA-MB231, SKBR-3 and MCF-7 using MTT assay. SKBR-3 and MCF-7 cell lines are estrogen and progesterone hormone positive cell lines often used as a model for the hormone therapy.[18] MDA-MB231 is triple negative breast cancer cell line, which is negative to estrogen and progesterone receptors and human epidermal growth factor receptor 2, a perfect model for chemotherapy.[18] Initially, all the prepared compounds 1–126 were tested on these three cancer cell lines at the screening concentration (10 μM) and percentage of cell viability was calculated 72 h after the treatment (Table 1).
(§2) The growth inhibitory effect of the compounds was determined on breast tumor cell line (MDA-MB231, SKBR-3 and MCF-7) at different concentrations with methotrexate and nilotinib as positive controls (Table 2).
(§3) The cytotoxic activity of 6,N^2-diaryl-1,3,5-triazine-2,4-diamines (1–126) was evaluated against three breast carcinoma cell lines (MDA-MB231, SKBR-3, and MCF-7) and normal breast cell line (MCF-10A) by MTT assay.[22] All cells were obtained from the American Type Culture Collection and were grown in 10% fetal bovine serum and 1% pen-strep antibiotic supplemented media (DMEM for MDA-MB231 and SKBR-3, RPMI for MCF-7, and MEGM for MCF-10A). For MTT assay, 20 000 to 75 000 cells per mL (based on the doubling time for each cell line) were seeded in 96 well plates and incubated for 24 h at 37 °C in 5% CO2 incubator. Then, compounds at different concentrations were added followed by the incubation at 37 °C for 72 h. After that, MTT solution (0.5 mg mL^−1) was added and the plates were incubated for another 4 h. The supernatant was then discarded and 100 μL of DMSO was added to each well. The plates were then read by Tecan NanoQuant (model: infinite m200 pro) plate reader and absorbance was measured at 570 nm. GI50 values were calculated using sigmoidal concentration–response curves (see ESI ^†) generated using the GraphPad Prism 7 program. Three independent experiments were carried out and the data were represented as mean of the three experiments.

[2] = test system: MDA-MB231; assay: MTT assay, MDA-MB231 breast cancer cells; settings: for viability at 10 µM / GI50: Homo sapiens, MDA-MB-231; for viability at 10 µM: read-out: Percentage of cell viability MDA-MB231
Protocol: as §1, §2, §3

[3] = test system: MCF-10A; assay: MTT assay, MCF-10A normal breast cells; settings: Homo sapiens, 72 h, read-out: GI50 (μM) ± SEM MCF-10A
Protocol: All the compounds, selected for determination of GI50 values against MDA-MB231 cells, were also used for the experiments with MCF-10A normal breast cells.
as §3

[4] = test system: MCF-7; assay: MTT assay, MCF-7 breast cancer cells; settings: for viability at 10 µM / GI50: Homo sapiens; for viability at 10 µM: MCF7, 10 μM, read-out: Percentage of cell viability MCF-7; for GI50: MCF7, 72 h, mean of three independent experiments ± SEM
Protocol: as §1, §2, §3

[5] = 10 μM, 72 h after the treatment, MTT, mean of three independent experiments
[6] = 72 h, MTT, mean of three independent experiments ± SEM, read-out: GI50 (μM) ± SEM MDA-MB231
[7] = −log[GI50], MDA-MB231, read-out: Experimental pGI50 (converted)
[8] = 72 h after the treatment, mean of three independent experiments

| GI50 ([1]; MTT) [µM] | GI50 [2, 6] [µM] | GI50 [2, 7] [µM] | GI50 [4] [µM] | Molecule | viability at 10 µM [1, 5] [%] | viability at 10 µM [2, 5] [%] | GI50 [3] [µM] | viability at 10 µM [4, 8] [%] | activity against SKBR-3 cells (in words) ([1]; SAR discussion, compared with MDA-MB231) | Percentage of cell viability SKBR-3 [1, 5] [%] | Percentage of cell viability MDA-MB231 [2, 5] [%] | Percentage of cell viability MCF-7 ([4]; 10 μM, 72 h after the treatment, mean of three independent experiments) [%] |
| --- | --- | --- | --- | --- | --- | --- | --- | --- | --- | --- | --- | --- |
| 15.6 ± 1.06 | 14 ± 1.33 | – | > 20 | COc1ccc(-c2nc(N)nc(Nc3cccnc3)n2)cc1 [Compound 81] | 77 | 46 | > 25 | 91 | – | – | – | – |
| > 20 | 12.8 ± 0.76 | 12.9 | > 20 | COc1ccccc1Nc1nc(N)nc(-c2ccc(OC(F)(F)F)cc2)n1 [Compound 95] | 81 | 46 | > 25 | 88 | – | – | – | – |
| > 20 | 11.5 ± 1.51 | 11.5 | > 20 | Nc1nc(Nc2cccnc2)nc(-c2ccc(OC(F)(F)F)cc2)n1 [Compound 99] | 81 | 33 | > 25 | 85 | – | – | – | – |
| 4.19 ± 0.37 | 0.36 ± 0.07 | 0.363 | > 20 | CN(C)c1ccc(-c2nc(N)nc(Nc3ccccc3)n2)cc1 [Compound 100] | 61 | 21 | > 25 | 80 | – | – | – | – |
| 0.29 ± 0.04 | 0.06 ± 0.001 | 0.0603 | > 20 | CN(C)c1ccc(-c2nc(N)nc(Nc3ccccc3F)n2)cc1 [Compound 101] | 51 | 28 | > 25 | 88 | – | – | – | – |
| > 20 | 7.2 ± 0.94 | 7.24 | > 20 | CN(C)c1ccc(-c2nc(N)nc(Nc3ccc(F)cc3)n2)cc1 [Compound 102] | 88 | 32 | > 25 | 90 | – | – | – | – |
| 3.63 ± 0.23 | 4.17 ± 0.33 | 4.17 | > 20 | COc1ccccc1Nc1nc(N)nc(-c2ccc(N(C)C)cc2)n1 [Compound 103] | 48 | 28 | > 25 | 88 | – | – | – | – |
| > 20 | 13.4 ± 1.18 | 13.5 | > 20 | Nc1nc(Nc2ccccc2)nc(-c2ccc(OCc3ccccc3)cc2)n1 [Compound 110] | 75 | 51 | > 25 | 100 | – | – | – | – |
| > 20 | 11.7 ± 1.39 | 11.7 | > 20 | Nc1nc(Nc2ccc(Br)cc2)nc(-c2cccs2)n1 [Compound 120] | 87 | 46 | > 25 | 88 | – | – | – | – |
| > 20 | 13.9 ± 1.74 | 13.8 | > 20 | Cc1ccc(Nc2nc(N)nc(-c3cccs3)n2)cc1 [Compound 121] | 95 | 49 | > 25 | 97 | – | – | – | – |

The remaining lines, values behind:

| Molecule | GI50 ([1]; MTT) [µM] | GI50 [2, 6] [µM] | GI50 [2, 7] [µM] | GI50 [4] [µM] | viability at 10 µM [1, 5] [%] | viability at 10 µM [2, 5] [%] | GI50 [3] [µM] | viability at 10 µM [4, 8] [%] | activity against SKBR-3 cells (in words) ([1]; SAR discussion, compared with MDA-MB231) | Percentage of cell viability SKBR-3 [1, 5] [%] | Percentage of cell viability MDA-MB231 [2, 5] [%] | Percentage of cell viability MCF-7 ([4]; 10 μM, 72 h after the treatment, mean of three independent experiments) [%] |
| --- | --- | --- | --- | --- | --- | --- | --- | --- | --- | --- | --- | --- |
| Nc1nc(Nc2ccc(F)cc2)nc(-c2cccc(F)c2)n1 [Compound 14] | > 20 | 9.21 ± 0.38 | 9.12 | > 20 | 100 | 50 | > 25 | 78 | – | – | – | – |
| Nc1nc(Nc2ccc(Br)cc2)nc(-c2cccc(F)c2)n1 [Compound 16] | 17.2 ± 1.07 | 13.1 ± 0.91 | 13.2 | > 20 | 89 | 43 | > 25 | 80 | – | – | – | – |
| Cc1ccc(Nc2nc(N)nc(-c3cccc(F)c3)n2)cc1 [Compound 17] | > 20 | 3.96 ± 0.17 | 3.98 | > 20 | 90 | 29 | > 25 | 71 | – | – | – | – |
| COc1ccc(Nc2nc(N)nc(-c3cccc(F)c3)n2)cc1 [Compound 18] | 16.6 ± 1.38 | 6.18 ± 0.43 | 6.17 | > 20 | 74 | 46 | > 25 | 76 | – | – | – | – |
| Nc1nc(Nc2ccc(OC(F)(F)F)cc2)nc(-c2cccc(F)c2)n1 [Compound 19] | > 20 | 8.56 ± 0.59 | 8.51 | 18.2 ± 1.28 | 100 | 50 | > 25 | 76 | – | – | – | – |
| Nc1nc(Nc2ccc(F)cc2)nc(-c2ccc(Cl)cc2)n1 [Compound 36] | 19.4 ± 2.39 | 14.1 ± 1.52 | 14.1 | > 20 | 98 | 49 | > 25 | 100 | – | – | – | – |
| Cc1ccc(Nc2nc(N)nc(-c3cccc(C)c3)n2)cc1 [Compound 56] | 1.26 ± 0.18 | 0.17 ± 0.02 | 0.17 | > 20 | 62 | 12 | > 25 | 67 | – | – | – | – |
| Cc1cccc(-c2nc(N)nc(Nc3ccc(OC(F)(F)F)cc3)n2)c1 [Compound 58] | > 20 | 15.2 ± 1.01 | 15.1 | > 20 | 100 | 50 | > 25 | 73 | – | – | – | – |
| Cc1ccc(-c2nc(N)nc(Nc3ccccc3F)n2)cc1 [Compound 61] | > 20 | 12.2 ± 1.15 | 12.3 | > 20 | 79 | 50 | > 25 | 73 | – | – | – | – |
| Cc1ccc(-c2nc(N)nc(Nc3ccc(F)cc3)n2)cc1 [Compound 62] | > 20 | 10.7 ± 0.73 | 10.7 | 20.2 ± 1.95 | 78 | 48 | > 25 | 100 | – | – | – | – |
| COc1ccc(-c2nc(N)nc(Nc3ccccc3F)n2)cc1 [Compound 70] | > 20 | 0.32 ± 0.04 | 0.324 | > 20 | 46 | 9 | > 25 | 63 | – | – | – | – |
| COc1ccc(-c2nc(N)nc(Nc3ccccc3Cl)n2)cc1 [Compound 73] | 1.1 ± 0.01 | 0.23 ± 0.03 | 0.229 | > 20 | 47 | 10 | > 25 | 84 | equipotent | – | – | – |
| COc1ccc(-c2nc(N)nc(Nc3cccc(Cl)c3)n2)cc1 [Compound 74] | 0.18 ± 0.04 | 1.33 ± 0.17 | 1.32 | 18.3 ± 1.11 | 45 | 22 | > 25 | 86 | – | – | – | – |
| COc1ccc(-c2nc(N)nc(Nc3cccc(C)c3)n2)cc1 [Compound 77] | 3.38 ± 0.36 | 0.95 ± 0.04 | 0.955 | > 20 | 40 | 22 | > 25 | 79 | – | – | – | – |
| COc1ccc(-c2nc(N)nc(Nc3ccccc3OC)n2)cc1 [Compound 78] | 2.15 ± 0.12 | 13.2 ± 0.93 | 13.2 | > 20 | 66 | 50 | > 25 | 57 | – | – | – | – |
| N ^2-(4-Methoxyphenyl)-6-(4-methylphenyl)-1,3,5-triazine-2,4-diamine [Compound 65] | – | – | – | – | – | – | – | – | – | 88 | 97 | 87 |
